According to patent US20240285514A1, “EXTRACTS OF EUTERPE OLERACEA, METHODS OF MAKING, AND USES THEREOF” (Naturesphix Limited, priority 2021, published 2024):
Values belong to the molecule of their own block, whether it stands above or below them.

Legend:
MMP-1 enzyme = target: T1, MMP-1 enzyme (Homo sapiens, UniProt P03956); assay: Metalloproteinase-1 (MMP-1) enzyme activity; type: biochemical
T1 sequence (P03956 100-469): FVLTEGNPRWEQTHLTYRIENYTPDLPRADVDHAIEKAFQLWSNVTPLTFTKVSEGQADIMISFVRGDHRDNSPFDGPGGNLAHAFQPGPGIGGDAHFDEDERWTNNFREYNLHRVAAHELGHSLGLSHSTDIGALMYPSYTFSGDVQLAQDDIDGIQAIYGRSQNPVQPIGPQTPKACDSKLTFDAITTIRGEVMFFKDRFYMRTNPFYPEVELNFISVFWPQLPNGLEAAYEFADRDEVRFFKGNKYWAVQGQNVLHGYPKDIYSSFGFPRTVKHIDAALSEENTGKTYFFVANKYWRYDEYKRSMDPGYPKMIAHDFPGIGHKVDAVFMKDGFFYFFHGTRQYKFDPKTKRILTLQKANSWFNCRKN
Experimental: The MMP-1 enzyme was evaluated after incubation with the Vehicle (0.04% DMSO), ST-035 (10 μg/mL), Ascorbic acid Reference Substance (10 μg/mL), Ferulic acid Reference Substance (4 μg/mL) or positive control of the test, GM6001, a MMP-1 enzyme activity inhibitor. The bars represent the mean±standard error of the mean of 1 assay performed in triplicate. The percentage of inhibition was calculated in relation to the Vehicle group. For the statistical analysis a one-way analysis of variance (ANOVA) was used, followed by the Newman-Keuls test (*p<0.05 in comparison to Vehicle group).

human keratinocytes [1] = assay: Intrinsic antioxidant activity (basal EROs production) with DCFH-DA probe in keratinocytes; type: cell-based; settings: no UVB, vs vehicle
Experimental: The 2′,7′ dichlorofluorescein diacetate (nonfluorescent) is de-esterified intracellularly and becomes a 2′,7′ highly fluorescent dichlorofluorescein after oxidation. Fluorescence detection was performed at 485 nm excitation wavelength and 535 nm emission wavelength in SpectraMax i3x (Molecular Devices) equipment. […] The concentrations of the Test Substance (10 μg/mL), Ascorbic acid Reference Substance (10 μg/mL) and Ferulic acid Reference Substance (4 μg/mL) were prepared according to the description above (Test Substance, Reference Substances and Vehicle Preparation). The intrinsic antioxidant activity of Test Substance in human keratinocytes was evaluated as follows. […] Subsequently, the production of EROs was evaluated through the microplate reader (485/535 nm). Two different assays were performed in triplicate. For the statistical analysis, one-way analysis of variance (ANOVA) was used, followed by the Newman-Keuls test (*p<0.05 in comparison to Vehicle group).

human keratinocytes [2] = assay: Scavenger potential against UVB radiation in keratinocytes (DCFH-DA probe); type: cell-based; settings: 10 μg/mL added immediately prior to UVB 90 mJ/cm^2; vs vehicle+UVB
Experimental: (§1) The 2′,7′ dichlorofluorescein diacetate (nonfluorescent) is de-esterified intracellularly and becomes a 2′,7′ highly fluorescent dichlorofluorescein after oxidation. Fluorescence detection was performed at 485 nm excitation wavelength and 535 nm emission wavelength in SpectraMax i3x (Molecular Devices) equipment. […] The concentrations of the Test Substance (10 μg/mL), Ascorbic acid Reference Substance (10 μg/mL) and Ferulic acid Reference Substance (4 μg/mL) were prepared according to the description above (Test Substance, Reference Substances and Vehicle Preparation).

human keratinocytes [3] = assay: Antioxidant potential against UVB radiation in keratinocytes (24 h pre-treatment, DCFH-DA probe); type: cell-based; settings: 10 μg/mL; incubation 24 hours before UVB 90 mJ/cm^2; vs vehicle+UVB
Experimental: as §1

human keratinocytes [4] = assay: Scavenger activity against UVB radiation, section headed 'in Fibroblasts' (FIG. 14); type: cell-based; settings: 10 μg/mL added immediately prior to UVB 90 mJ/cm2; vs vehicle+UVB
Experimental: as §1

human fibroblasts = assay: Antioxidant potential against UVB in human fibroblasts (DCFH-DA probe); type: cell-based; settings: pre-incubation before UVB 90 mJ/cm^2, vs vehicle+UVB
Experimental: as §1, with “Preparation). The human fibroblasts were incubated with a DCFH-DA probe (50 μM) for 30 minutes. After this period, the fibroblasts were incubated. For statistical analysis, one-way variance analysis (ANOVA) was used, followed by Newman-Keuls test (#p<0.05 compared to Vehicle group and *p<0.05 compared to Vehicle+UVB 90 mJ/cm^2).” for “Preparation).”

tyrosinase = assay: Tyrosinase enzyme activity; type: biochemical
Experimental: After that, 170 μL of L-tyrosine substrate 1 mM, solubilized in a potassium phosphate buffer 50 mM (pH 6.5) were added. After the incubation period of 30 to 40 minutes, the plate was read at 490 nm.
For the statistical analysis one-way analysis of variance (ANOVA) was used, followed by the Newman-Keuls test (*p<0.05 in comparison to the Vehicle group). The percentage of inhibition was calculated in relation to the Vehicle group.

[5] = tested on: reconstructed human tissue model; assay: Skin irritation assay, reconstructed human epidermis (OECD TG439); type: cell-based; settings: 42 minutes treatment; three tissues
Experimental: The possible irritant action of ST-035 on a reconstructed human tissue model, as described in the OECD Guidelines for the Testing of Chemicals, Section 4, TG439 In Vitro Skin Irritation: Reconstructed Human Epidermis Test Method was evaluated. After receiving the tissues, they were readapted in growth medium overnight until the Treatment moment. After the readaptation, Negative Control, positive control (Reference Substance) or Test Substance were added in a 16 μL volume on the epidermis and maintained for 42 minutes (±1 minute). Following, each tissue went through a 25-phosphate buffer washing process to remove the Treatments. Subsequently, the epidermis was maintained for 42 hours (±1 hour) in growth medium in a CO2 incubator (5±0.1%) at 37±0.1° C. After this period, the tissues were incubated for 3 hours (±15 minutes) with a 1 mg/mL MTT solution and then 2 hours with isopropanol for the formazan complex extraction. Then, 200 μL of each well (in duplicate) were transferred to a 96-well plate for absorbance reading at 570 nm.
Skin irritation assay in a reconstructed human skin model is an alternative method that follows the OECD TG439 standards and is validated by international centers, with international regulatory acceptance. […]

SMILES: CNC(=O)[C@H](Cc1c[nH]c2ccccc12)NC(=O)[C@@H](CC(=O)NO)CC(C)C [GM6001]
reduction of MMP-1 activity (MMP-1 enzyme; 1 μM, assay validation): 81.3±1.5%

SMILES: COc1cc(/C=C/C(=O)O)ccc1O [ferulic acid]
reduction of basal production of EROs (human keratinocytes [1]; 4 μg/mL, 4 hours): 26.8±2.4% | reduction of basal production of EROs (human keratinocytes [1]; 4 μg/mL, 24 hours): 45.8±6.6% | change of MMP-1 activity in vitro (MMP-1 enzyme; 4 μg/mL, vs vehicle): did not change | reduction of production of reactive oxygen species (antioxidant potential) (human fibroblasts; 4 μg/mL): 47.4±0.5%

SMILES: CCCCCCCCCCCCOS(=O)(=O)[O-].[Na+] [SDS, sodium dodecylsulfate]
tissue viability mean (absorbance at 570 nm) [5]: 0.018±0.001

Now from value to molecule, other results behind:

inhibition at 10 µg/mL (MMP-1 enzyme; 10 μg/mL, vs vehicle): 9.2 ± 1.5%
SMILES: O=C1O[C@H]([C@@H](O)CO)C(O)=C1O [ascorbic acid]
reduction of basal production of EROs (human keratinocytes [1]; 10 μg/mL, 4 hours): did not change | reduction of basal production of EROs (human keratinocytes [1]; 10 μg/mL, 24 hours): did not change | reduction of UVB induced production of EROs (scavenger potential) (human keratinocytes [2]): 46.2±2.0% | decrease of production of EROs after UVB (antioxidant capacity) (human keratinocytes [3]): 44.3±11.4% | reduction of UVB induced production of EROs (scavenger potential, FIG. 14) (human keratinocytes [4]): 46.2±2.0% | reduction of production of reactive oxygen species (antioxidant potential) (human fibroblasts; 10 μg/mL): 30.5±6.2%

reduction of tyrosinase enzyme activity (tyrosinase; 300 μg/mL): 43% | reduction of tyrosinase enzyme activity (tyrosinase; 1,000 μg/mL): 84%
SMILES: O=c1cc(CO)occ1O [kojic acid]
